Test results: the NIST ThermoML archive (doi:10.1021/je501162f)

What was measured:
[1] = for viscosity / mass density: 101.33 kPa; for viscosity / mass density / surface tension liquid-gas: Liquid; for mass density: Vibrating tube method; for surface tension liquid-gas: Pendant drop shape; for Glass transition temperature: DTA
[2] = molar heat capacity at constant pressure; settings: 101.33 kPa, Liquid, Small sample (50 mg) DSC

CCCCCCCC[n+]1ccn(C)c1.C[C@H](N)C(=O)[O-] [1-methyl-3-octylimidazolium L-alaninate]
Settings	mass density, [1] [kg/m3]	molar heat capacity at constant pressure, [2] [J/K/mol]	surface tension liquid-gas, [1] [mN/m]	viscosity, [1] [mPa·s]
293.15 K	985.3	592.06	28.24	705.1
303.15 K	982.1	600.95	27.9	347.3
313.15 K	978.6	609.08	27.23	184.6
323.15 K	975.8	620.49	26.61	106.9
333.15 K	972.9	632.82	26.11	65.7
343.15 K	969.3	645.14	25.55	42.9
353.15 K	966.3	657.43	24.99	29.1
363.15 K	962.6	–	–	20.7
373.15 K	959.7	–	–	15.2

Settings	Glass transition temperature [°C]
[1]	-66

CCCCCCCC[n+]1ccn(C)c1.NC(=O)C[C@H](N)C(=O)[O-] [1-methyl-3-octylimidazolium L-asparaginate]
Settings	mass density, [1] [kg/m3]	molar heat capacity at constant pressure, [2] [J/K/mol]	surface tension liquid-gas, [1] [mN/m]	viscosity, [1] [mPa·s]
293.15 K	–	654	34.32	–
303.15 K	1061.7	662.93	33.7	3519.9
313.15 K	1057.2	670.78	32.96	1436.8
323.15 K	1052.2	682.99	31.99	659.1
333.15 K	1048.6	694.16	31.73	333.3
343.15 K	1044.1	705.81	30.88	182.6
353.15 K	1039	717.01	30.19	107.1
363.15 K	1034.4	–	–	66.6
373.15 K	1030.1	–	–	43.5

Settings	Glass transition temperature [°C]
[1]	-44

CCCCCCCCn1cc[n+](C)c1.NCC(=O)[O-] [1-methyl-3-octylimidazolium glycinate]
Settings	mass density, [1] [kg/m3]	molar heat capacity at constant pressure, [2] [J/K/mol]	surface tension liquid-gas, [1] [mN/m]	viscosity, [1] [mPa·s]
293.15 K	1041.7	504.06	35.37	486.4
303.15 K	1035.3	511.67	33.98	248.2
313.15 K	1029.1	518.04	32.81	137.9
323.15 K	1023	526.8	31.35	82.4
333.15 K	1016.8	536.66	30.07	52.3
343.15 K	1010.6	546.99	28.75	34.9
353.15 K	1004.4	555.85	27.42	24.4
363.15 K	998.6	–	–	17.7
373.15 K	992.8	–	–	13.3

Settings	Glass transition temperature [°C]
[1]	-69

CCCCCCCCn1cc[n+](C)c1.O=C([O-])[C@@H]1CCCN1 [1-methyl-3-octyl-1H-imidazol-3-ium L-prolinate]
Settings	mass density, [1] [kg/m3]	molar heat capacity at constant pressure, [2] [J/K/mol]	surface tension liquid-gas, [1] [mN/m]	viscosity, [1] [mPa·s]
293.15 K	1064.5	561.68	29.28	1969.8
303.15 K	1058.2	569.53	28.88	839.9
313.15 K	1051.8	578.89	28.46	401.2
323.15 K	1045.5	590.88	28.17	211
333.15 K	1039.1	603.42	27.76	120.3
343.15 K	1032.8	615.85	27.62	73.2
353.15 K	1026.4	627.51	27.14	47.2
363.15 K	1020.1	–	–	31.9
373.15 K	1013.9	–	–	22.4

Settings	Glass transition temperature [°C]
[1]	-62

CCCCCCCC[n+]1ccn(C)c1.N[C@@H](CO)C(=O)[O-] [1-methyl-3-octyl-1H-imidazol-3-ium L-serinate]
Settings	mass density, [1] [kg/m3]	molar heat capacity at constant pressure, [2] [J/K/mol]	surface tension liquid-gas, [1] [mN/m]	viscosity, [1] [mPa·s]
293.15 K	1075.6	599.21	34.29	2853
303.15 K	1069.3	607.97	32.8	1178.7
313.15 K	1062.7	614.69	32.2	536.2
323.15 K	1056.1	624.21	31.6	271.2
333.15 K	1049.7	634.19	31	149.6
343.15 K	1043.3	644.72	30.01	88.9
353.15 K	1036.9	655.67	29.23	56.2
363.15 K	1030.5	–	–	37.5
373.15 K	1024.2	–	–	26.2

Settings	Glass transition temperature [°C]
[1]	-54
